Experimental data published in US20100190778A1, “3,4-DIHYDROBENZO[1,2,3]THIADIAZINE-1,1-DIOXIDE DERIVATIVES, PROCESS FOR PREPARATION THEREOF, MEDICAMENTS CONTAINING SAID DERIVATIVES AND THEIR USE” (EGIS GYOGYSZERGYAR NYILVANOSAN MUKODO RESZVENTARSASAG, priority 2006, published 2010).

Legend:
[1] = system: male Sprague-Dawley rats; assay: elevated maze test in the rat (anxiolytic effect); assay type: in vivo; settings: per os, 60-min pretreatment, 5-min measurement, MED regarding time spent in the open arms and number of entries into the open arms
Procedure: Pharmacological activity of the compounds of the general Formula (I) has been evaluated in elevated maze test in the rat.
The tests were carried out according to the method of S. Fellow and coworkers (J. Neurosci. Methods. 1985, 14, 149-167). During the test, a wooden-floor cross elevated by 50 cm from the ground was used. The length and the width of the arms of the cross were 100 and 15 cm, respectively. Two opposite arms of the cross are fitted at the ends and both sides with black plexiglass wall of 40 cm height (closed arms). The central section of the cross measuring 15 by 15 cm is open. The other two opposite arms of the cross are not provided with walls (open arms).
The tests were carried out in male Sprague-Dawley rats weighing 200 to 220 g. After the 60-min pretreatment time (per os treatment), animals were placed in the center of the maze. During the 5-min measurement time, four variables were recorded: the time spent in the open arms; the time spent in the closed arms; the number of entries into the open arms; the number of entries into the closed arms.
Animals normally avoid the open and light parts of the maze, thereby spending little time therein only. The anxiolytic effect of the compounds of the general Formula (I) is indicated by the increase in the time spent (in seconds) in the open arms and/or by the increase in the number of the entries into the open compartments of the maze. The minimum effective dose (MED) was determined for each tested compounds regarding the time spent in the open arms and the number of entries into the open arms. During the test, the known anxiolytic compound I-methyl-5-phenyl-7-chloro-1,3-dihydro-2H-1,4-benzodiazepin-2-one (INN: diazepam) of the Formula (IV)
was used. Treatment of the animals was carried out orally with the doses 0.1, 0.3, 1.0, 3.0 for diazepam and 0.01, 0.1, 1.0 mg/kg for the compounds of the general Formula (I).

melting point: 124 to 125 °C
SMILES: CN1NCc2ccc(Cl)c(Cl)c2S1(=O)=O [Example 20, 7,8-Dichloro-2-methyl-3,4-dihydrobenzo[1,2,3]thiadiazine-1,1-dioxide]
MED (minimum effective dose), anxiolytic effect in elevated maze test [1]: 0.01 mg/kg p.o.
